Assay results taken from article PMC11091220, “Metabolism-driven in vitro/in vivo disconnect of an oral ERɑ VHL-PROTAC” (Communications Biology, 2024).

How the values were obtained:
[1] = biological target: T1, ERα (Homo sapiens, UniProt P03372); assay: Western blot analysis of ERα in MCF7 cells (dose response, MG132, VHL ligand and cpd 8 competition); format: cell-based
T1 construct: endogenous in cells; host or cells: MCF7 (also MCF7 engineered to express Cas9)
T1 sequence (P03372 1-595): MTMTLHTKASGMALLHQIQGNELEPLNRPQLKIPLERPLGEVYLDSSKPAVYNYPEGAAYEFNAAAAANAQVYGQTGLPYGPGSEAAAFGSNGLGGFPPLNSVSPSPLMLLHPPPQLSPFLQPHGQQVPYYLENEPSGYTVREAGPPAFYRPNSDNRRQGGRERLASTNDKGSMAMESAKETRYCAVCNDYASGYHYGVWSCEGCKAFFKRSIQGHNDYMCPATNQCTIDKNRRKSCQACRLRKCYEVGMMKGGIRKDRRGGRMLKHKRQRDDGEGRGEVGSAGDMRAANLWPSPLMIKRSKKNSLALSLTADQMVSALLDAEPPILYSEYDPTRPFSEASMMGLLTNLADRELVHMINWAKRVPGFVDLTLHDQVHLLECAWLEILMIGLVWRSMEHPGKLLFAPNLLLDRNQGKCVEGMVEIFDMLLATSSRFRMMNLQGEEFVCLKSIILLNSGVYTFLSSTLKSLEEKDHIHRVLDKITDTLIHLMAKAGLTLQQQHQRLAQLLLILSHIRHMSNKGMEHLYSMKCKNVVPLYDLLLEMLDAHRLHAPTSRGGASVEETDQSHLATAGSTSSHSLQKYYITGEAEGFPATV
Description: Fig. 2 AZ’6421 degrades ERα through a PROTAC mechanism of action. a Immunoblots for ERα and vinculin loading control. MCF7 cells were pre-treated with 10 µM MG132 or DMSO control for 1 h before being exposed to DMSO, AZ’6421, or fulvestrant, at the concentrations indicated, for a further 7 h. A representative immunoblot from two biological replicates is shown. b As in a but cells were pre-treated with 10 µM VHL ligand (Ac-(S,R,S)-AHPC) prior to addition of DMSO, AZ’6421 or fulvestrant. c MCF7 cells expressing BFP-Cas9 were reverse transfected with the crRNA:tracrRNA pool targeting VHL for 72 h prior to treatment with increasing concentrations of AZ’6421 for a further 24 h. Cells were then fixed, stained, and imaged to assess ERα and Cas9 expression. ERα levels in Cas9 positive cells were normalised to unedited cells (0) and ESR1 KO cells (-100). Data points are from three independent experiments, points in bold represent the mean. d Structure of AZ’6421 and the (S)-prolinol epimer, 7. e Concentration-response curves for AZ’6421 and 7. ERα levels in MCF7 cells were assessed using an immunofluorescence endpoint after 24 h exposure to compound. […] Data points are from 5 (AZ'6421) or 2 (Cpd 7) independent experiments with technical duplicates performed for each experiment, bold points represent the mean. All concentration-response curves were plotted using nonlinear regression analysis in GraphPad Prism.
Fig. 6 Assessment of the cause of the in vitro/in vivo disconnect. a CTC174 tumours were disaggregated into single cells, seeded in 6-well plates and dosed with increasing concentrations of AZ’6421 for 24 hours before being lysed. ERα levels were assessed by immunoblotting. ERɑ levels normalised to vinculin and expressed as % DMSO control are shown underneath the immunoblot. b Representative IHC images taken from sections of tumour treated with vehicle control or 100 mg/kg AZ’6421 for 4 days. Sections were stained with an antibody against ERα (Sp1, Ventana). c Schematic of potential sites of metabolism d Free plasma exposure of AZ’6421 and its metabolite 8 following 100 mg/kg dosing of AZ’6421. e Concentration-response curves for AZ’6421 and metabolite 8. ERα levels in MCF7 cells were assessed using an immunofluorescence endpoint after 24 h exposure to compound. […] Points in bold represent the mean. f Effect of metabolite 8 on ERα degradation in CTC174 cells cultured ex vivo. […] MCF7 cells were pre-treated with 10 µM cpd 8 or DMSO control for 1 h before being exposed to DMSO, AZ’6421 or fulvestrant, at the concentrations indicated, for a further 24 h. A representative immunoblot from two biological replicates is shown. TEXT PRINTED IN THE PICTURE: (a) AZ'6421: ERα % of DMSO control: 20.3 (1 nM); ERα % of DMSO control: 12.0 (10 nM); ERα % of DMSO control: 4.1 (30 nM); ERα % of DMSO control: 4.2 (100 nM); ERα % of DMSO control: 3.9 (300 nM); ERα % of DMSO control: 3.6 (1000 nM)
Cells were seeded into 12-well tissue culture-treated plates at 0.5 x 10^6 cells/well in phenol red-free RPMI containing 5% (v/v) charcoal-stripped FBS (F6765, Sigma) and left to adhere overnight. In experiments to detect agonism or for SILAC experiments, FBS was double stripped using activated charcoal. Cells were treated with compound or 0.1% DMSO vehicle control for the times indicated prior to being lysed in Pierce RIPA buffer (Thermo Scientific), supplemented with protease and phosphatase inhibitors. Expression levels of proteins were determined by standard western blotting techniques (BioRad 4%-12% Bis-Tris gels). Antibodies were diluted in 5% milk-PBS-Tween and protein levels were detected using Pierce WestDura chemiluminescent reagents followed by visualisation and quantification on a Syngene ChemiGenius Imager. Where blots were quantified, protein levels were normalised to beta-actin or vinculin control and expressed as % of vehicle control.

[2] = Mouse microsome intrinsic clearance; format: in vitro ADME
Description: Mouse liver microsomes (Male CD-1) are obtained from Corning at a concentration of 20 mg/mL protein. The test compound was prepared to 10 mM in 100% DMSO and further diluted to 100 μM in 100% acetonitrile. The microsomal incubations were prepared in phosphate buffered solution pH 7.4 containing 1 mg/mL microsomal protein, 1 mM NADPH and a final compound concentration of 1 μM. Following a pre-incubation with NADPH for 8 min, reactions were initiated through the addition of the test compound (final volume 250 µL) and incubated at 37 °C in a water bath for 30 min. At each time point (0.5, 5, 10, 15, 20, 30 min) 20 μL of incubation mixture was quenched with 100 μL of 100% ice cold acetonitrile. Samples were shaken at 800 rpm for 2 min and centrifuged at 4000 rpm for 20 min at 4 °C to pellet precipitated protein. The supernatant fraction was diluted 1:5 with deionised water, shaken at 1000 rpm for 2 min, and further diluted 1:1 with deionised water. Samples were analysed by LC-MS/MS[17].

In the case of `Cc1ncsc1-c1ccc(CNC(=O)[C@@H]2C[C@@H](O)CN2C(=O)[C@@H](NC(=O)COCCCOCCCOc2cc(F)c([C@@H]3c4[nH]c5ccccc5c4C[C@@H](C)N3CC(C)(C)F)c(F)c2)C(C)(C)C)cc1` [Compound 5], the “effect of MG132 pre-treatment on ERα degradation” value ([1]; 10 µM MG132 1 h, then compound 7 h, MCF7) is reported as “attenuated ERα degradation”, the “effect of excess acetylated-(S,R,S)-AHPC pre-treatment on ERα degradation” value ([1]; 10 µM VHL ligand, MCF7) is reported as “partially reduced ERα degradation” and the “effect of excess (10 µM) 8 on ERα degradation” value ([1]; MCF7, 100 and 300 nM, 24 h) is reported as “reduce this degradation to levels achieved in the presence of 8 alone”. The ERα degradation ([1]; MCF7, 100 and 300 nM, 24 h, western blot) was “near-complete degradation of ERα”, the “concentration giving maximal ERα degradation” value ([1]; MCF7, 24 hours, western blot) was no less than 10 nM and the remaining activity at 1 µM ([1]; MCF7, read-out: ERa % of control) was 0.87%. For the same compound, the “mouse liver microsomes stability” value [2] was 22 µL/min/mg protein.
